US6444194B1, “Indium photosensitizers for PDT” (Miravant Pharmaceuticals, Inc., priority 1997, dated 2002)

Tests used:
BA mammary carcinoma = experiment: In vivo assay of photosensitizers on tumors (PDT tumor cure); parameters: species or system C3H/HeJ mice; details: light dose 200 J/cm^2, n = 10
Protocol: Female C3H/HeJ mice (8-9 weeks old) were subjected to trochar implantation of BA mammary carcinoma on the hind leg of the animals. Animals having tumors ca 5 mm in diameter were entered into the in vivo screen. For each new photosensitizer, a group of at least three mice were used to ascertain a drug dose that caused a response as described in table 3 when treated with the appropriate wavelength of light. Generally in this series, animals were injected with 1 μ mole of sensitizer/Kg of body weight, formulated in egg yolk phosphatidate (EYP), via the tail vein. At a defined time period later the animals were irradiated with light from a laser source tuned to the wavelength of activation of the sensitizer. The power density of the laser was set at 75 mW/cm^2 with a total light dose of 200 J/cm^2.

[1] = system: Chinese hamster lung fibroblasts (V-79); experiment: DC(50)(light): colony-formation phototoxicity after laser irradiation; assay type: cell-based; details: V-79 cells; sensitizer incubation 16-24 hours; 12.5 mW/cm^2, total light dose 1.25 J/cm^2; concentration for lethal damage to 50% of cells
Protocol: (§1) For the Biological Evaluation, Chinese hamster lung fibroblasts (V-79) obtained from the American Tissue Culture Collection were grown in D-MEM supplemented with 10% fetal calf serum at 37° C., 5% CO2, and 95% humidity. These cells were used to evaluate the sensitizers for dark and light toxicity, and cellular uptake. Medium was replaced with 5% fetal calf serum supplemented medium during sensitizer incubations.
In the first phase, the combination of intracellular and extracellular concentration of photosensitizer required for lethal damage to 50% of the cells in culture (DC(50)) on light exposure was determined by plating cells at a density of 100 cells/cm^2 and incubating for 1-3 hours to allow attachment of the cells. Cells were incubated with various concentrations of sensitizer ([C]=0.01-1.0 μM) delivered in non-toxic concentrations of DMSO/5% dextrose solution or in some cases in egg yolk phosphatidase (EYP) for 16-24 hours. The cells were then irradiated with laser light using a tunable Lexel argon pumped dye laser at the band I absorption of the photosensitizer. Total power density was adjusted to 12.5 mW/cm^2 and a total light dose of 1.25 J/cm^2 was applied. After treatment, cells were washed with HBSS, refed with 10% FBS supplemented DMEM with phenol red and incubated for 3-5 days to allow colony formation. Cells were fixed in methanol, stained with Giemsa, and colonies were counted. Plating efficiency was determined using a control colony and the mean percent survival fraction plotted against the sensitizer concentration and the DC50 established (Table 5).

[2] = Photophysical measurements of photosensitizers (λmax, ε, φ f); assay type: physicochemical; parameters: λmax: unit not given here; details: for ε: at λmax; for λmax: band I absorption maximum
V-79 cells = experiment: Cellular uptake of photosensitizer; assay type: in vitro ADME, Chinese hamster; details: 10 μM photosensitizer in EYP
Protocol: as §1
Several photosensitizers were screened by a standard cellular uptake protocol. A 10 μM stock solution of photosensitizer in EYP was prepared by dilution of the photosensitizer stock (1 mM) using 5% dextrose solution. […] Following incubation the cells were washed with PBS (1 mL) three times, then washed with HBSS (1 mL) and detached using 100 μL of trypsin. Individual wells containing cells were lysed by three freeze thaws.
Spiking experiments were performed to confirm that the sensitizer could be adequately recovered using standard procedures. The sensitizer was then extracted from the cell debris with DMSO, centrifuged and the supernatant examined for fluorescence. Sensitizer concentration was determined by comparison to a standard curve. Results are expressed in ug/ug protein. Untreated monolayers are used to determine cell count. Treated cells of each time point were used to determine the protein concentration using the BCA assay. Results shown are the mean of the three experiments for each timepoint.

[3] = drug dose 3 μm/Kg via tail vein in EYP, treatment 24 post injection
[4] = drug dose 2.5 μm/Kg via tail vein in EYP, treatment 24 post injection
[5] = drug dose 0.1 μm/Kg via tail vein in EYP, treatment 24 post injection
[6] = drug dose 0.05 μm/Kg via tail vein in EYP, treatment 24 post injection

CCC1=C(CC)c2cc3[nH]c(c(CC)c3CC)c3cccc4c3nc(cc3[nH]c(cc1n2)c(CC)c3CC)C4(CC)CC [Compound 1, Octaethylbenzochlorin]
% Cure (30 days) (BA mammary carcinoma; [3]): 60% | IC50 [1]: > 1000 nM | φ f [2]: 0.347 | ε [2]: 35,000 M^−1 cm^−1 | λmax [2]: 658

CCC1=C(CC)c2cc3[nH]c(c(CC)c3CC)c3cc(S(=O)(=O)NCCCO)cc4c3nc(cc3[nH]c(cc1n2)c(CC)c3CC)C4(CC)CC [Compound 2, OEBCSO2NH(CH2)3OH]
% Cure (30 days) (BA mammary carcinoma; [4]): 80% | IC50 [1]: 500 to 1000 nM | φ f [2]: 0.230 | ε [2]: 34,000 M^−1 cm^−1 | λmax [2]: 665 | Cellular uptake (24 hrs) (V-79 cells): 0.129 ρmole/μg protein

CCC1=C(CC)c2cc3[nH]c(c(CC)c3CC)c3cc(C)cc4c3nc(cc3[nH]c(cc1n2)c(CC)c3CC)C4(CC)CC [Compound 3]
% Cure (30 days) (BA mammary carcinoma; [4]): 60% | φ f [2]: 0.35 | ε [2]: 35,000 M^−1 cm^−1 | λmax [2]: 658

CCC1=C(CC)C2=NC1=Cc1c(CC)c(CC)c3[n]1[Zn][n]1c(c(CC)c(CC)c1=c1cccc4c1=NC(=C3)C4(CC)CC)=C2 [Compound 4]
% Cure (30 days) (BA mammary carcinoma; [3]): 0% | IC50 [1]: > 1000 nM | φ f [2]: 0.150 | ε [2]: 57,000 M^−1 cm^−1 | λmax [2]: 678

CCC1=C(CC)C2=NC1=Cc1c(CC)c(CC)c3[n]1[In]([Cl])[n]1c(c(CC)c(CC)c1=c1cccc4c1=NC(=C3)C4(CC)CC)=C2 [Compound 9, In Octaethylbenzochlorin]
% Cure (30 days) (BA mammary carcinoma; [5]): 70% | IC50 [1]: 100 nM | φ f [2]: 0.028 | ε [2]: 53,000 M^−1 cm^−1 | λmax [2]: 691 | Cellular uptake (24 hrs) (V-79 cells): 0.336 ρmole/μg protein

CCC1=C(CC)C2=NC1=Cc1c(CC)c(CC)c3[n]1[In]([Cl])[n]1c(c(CC)c(CC)c1=c1cc(S(=O)(=O)NCCCO)cc4c1=NC(=C3)C4(CC)CC)=C2 [Compound 10, InOEBCSO2NH(CH2)3OH]
% Cure (30 days) (BA mammary carcinoma; [5]): 100% | IC50 [1]: 100 to 125 nM | φ f [2]: 0.027 | ε [2]: 52,000 M^−1 cm^−1 | λmax [2]: 684

CCC1=C(CC)C2=NC1=Cc1c(CC)c(CC)c3[n]1[In]([Cl])[n]1c(c(CC)c(CC)c1=c1cc(C)cc4c1=NC(=C3)C4(CC)CC)=C2 [Compound 11]
% Cure (30 days) (BA mammary carcinoma; drug dose 0.15 μm/Kg via tail vein in EYP, treatment 24 post injection): 90% | φ f [2]: 0.034 | ε [2]: 54,000 M^−1 cm^−1 | λmax [2]: 687

CCC1=C(CC)C2=NC1=Cc1c(CC)c(CC)c3[n]1[In]([Cl])[n]1c(c(CC)c(CC)c1=c1cc(S(=O)(=O)N(CCO)CCO)cc4c1=NC(=C3)C4(CC)CC)=C2 [Compound 12]
% Cure (30 days) (BA mammary carcinoma; [6]): 90% | IC50 [1]: 40 nM | φ f [2]: ˜0.03 | ε [2]: 52,000 M^−1 cm^−1 | λmax [2]: 684

CCC1=C(CC)C2=NC1=Cc1c(CC)c(CC)c3[n]1[In]([Cl])[n]1c(c(CC)c(CC)c1=c1cc(S(=O)(=O)NCCCCCO)cc4c1=NC(=C3)C4(CC)CC)=C2 [Compound 13]
% Cure (30 days) (BA mammary carcinoma; drug dose 0.075 μm/Kg via tail vein in EYP, treatment 24 post injection): 80% | IC50 [1]: 40 nM | φ f [2]: ˜0.03 | ε [2]: 52,000 M^−1 cm^−1 | λmax [2]: 684

CCC1=C(CC)C2=NC1=Cc1c(CC)c(CC)c3[n]1[In]([Cl])[n]1c(c(CC)c(CC)c1=c1cc(S(=O)(=O)NCCN(C)C)cc4c1=NC(=C3)C4(CC)CC)=C2 [Compound 15]
% Cure (30 days) (BA mammary carcinoma; [6]): 100% | IC50 [1]: 50 nM | φ f [2]: ˜0.03 | ε [2]: 52,000 M^−1 cm^−1 | λmax [2]: 684

CCC1=C(CC)C2=NC1=Cc1c(CC)c(CC)c3[n]1[In]([Cl])[n]1c(c(CC)c(CC)c1=c1cc(S(=O)(=O)NCCOCCOCCOC)cc4c1=NC(=C3)C4(CC)CC)=C2 [Compound 16]
% Cure (30 days) (BA mammary carcinoma; [6]): 80% | IC50 [1]: 40 nM | φ f [2]: ˜0.03 | ε [2]: 52,000 M^−1 cm^−1 | λmax [2]: 684

CCC1=C(CC)C2=NC1=Cc1c(CC)c(CC)c3[n]1[In]([Cl])[n]1c(c(CC)c(CC)c1=c1cc(S(=O)(=O)NCCCS)cc4c1=NC(=C3)C4(CC)CC)=C2 [Compound 18]
IC50 [1]: 40 nM | φ f [2]: 0.03 | ε [2]: 52,000 M^−1 cm^−1 | λmax [2]: 684

CCC1=C(CC)C2=NC1=Cc1c(CC)c(CC)c3[n]1[In]([Cl])[n]1c(c(CC)c(CC)c1=c1cc(S(=O)(=O)NC(CO)(CO)CO)cc4c1=NC(=C3)C4(CC)CC)=C2 [Compound 19, InOEBCSO2NHC(CH2OH)3]
IC50 [1]: 40 nM | φ f [2]: 0.03 | ε [2]: 52,000 M^−1 cm^−1 | λmax [2]: 684

CCC1=C(CC)C2=NC1=Cc1c(CC)c(CC)c3[n]1[In]([Cl])[n]1c(c(CC)c(CC)c1=c1cc(S(=O)(=O)NCC(=O)O)cc4c1=NC(=C3)C4(CC)CC)=C2 [Compound 20]
IC50 [1]: 40 nM | ε [2]: 52,000 M^−1 cm^−1 | λmax [2]: 684

CCC1=C(CC)C2=NC1=Cc1c(CC)c(CC)c3[n]1[In]([Cl])[n]1c(c(CC)c(CC)c1=c1cc(S(=O)(=O)NCCCCC(N)C(=O)O)cc4c1=NC(=C3)C4(CC)CC)=C2 (centres unmarked) [Compound 21, InOEBCSO2NH (CH2)4CH(NH2)CO2H]
IC50 [1]: 40 nM | φ f [2]: 0.03 | ε [2]: 52,000 M^−1 cm^−1 | λmax [2]: 684

C=Cc1c(C)c2cc3nc(c4c5[nH]c(cc6nc(cc1[nH]2)C(C)=C6CC)c(C)c5C(=O)C4)[C@@H](CCC(=O)OC)[C@@H]3C [Compound 22]
% Cure (30 days) (BA mammary carcinoma; drug dose 10.6 μm/Kg via tail vein in EYP, treatment 3 post injection): 50%

C=Cc1c(C)c2[n]3c1=CC1=NC(=Cc4c(C)c5c([n]4[Sn]3([Cl])[Cl])C(=C3N=C(C=2)[C@@H](C)[C@@H]3CCC(=O)OC)CC5=O)C(CC)=C1C [Compound 23]
% Cure (30 days) (BA mammary carcinoma; drug dose 2.0 μm/Kg via tail vein in EYP, treatment 24 or 6 post injection): 0% | IC50 [1]: > 1000 nM

C=Cc1c(C)c2[n]3c1=CC1=NC(=Cc4c(C)c5c([n]4[In]3[Cl])C(=C3N=C(C=2)[C@@H](C)[C@@H]3CCC(=O)OC)CC5=O)C(CC)=C1C [Compound 24]
% Cure (30 days) (BA mammary carcinoma; drug dose 0.2 μm/Kg via tail vein in EYP, treatment 6 or 8 post injection): 80%

CCC1=C(C)C2=NC1=Cc1c(C)c3c4[n]1[In]([Cl])[n]1c(c(C)c(C(C)=O)c1=C2)=CC1=NC(=C4CC3=O)[C@@H](CCC(=O)OC)[C@@H]1C [Compound 26, Indium 2-desvinyl-2-acetyl pyropheophorbide]
% Cure (30 days) (BA mammary carcinoma; drug dose 0.125 μm/Kg via tail vein in EYP, treatment 8 post injection): 90% | IC50 [1]: 60 nM | λmax [2]: 672

CCC1=C(C)C2=NC1=Cc1c(C)c3c4[n]1[Pd][n]1c(c(C)c(C(C)=O)c1=C2)=CC1=NC(=C4CC3=O)[C@@H](CCC(=O)OC)[C@@H]1C [Compound 28]
% Cure (30 days) (BA mammary carcinoma; drug dose 0.2 μm/Kg via tail vein in EYP, treatment 8 post injection): 80% | IC50 [1]: 50 nM | λmax [2]: 653

Indium 2-desvinyl-2-formyl pyropheophorbide [Compound 27]
% Cure (30 days) (BA mammary carcinoma; drug dose 0.1 μm/Kg via tail vein in EYP, treatment 8 post injection): 90% | IC50 [1]: 50 nM | λmax [2]: 683

tin octaethylbenzochlorin [Compound 6]
% Cure (30 days) (BA mammary carcinoma; drug dose 0.75 μm/Kg via tail vein in EYP, treatment 24 post injection): 80% | IC50 [1]: 80 to 160 nM | φ f [2]: 0.044 | ε [2]: 54,000 M^−1 cm^−1 | λmax [2]: 691 | Cellular uptake (24 hrs) (V-79 cells): 0.501 ρmole/μg protein
